Substitutions are numbered along the chain they refer to.
What was measured:
P2Y12-K80A = biological target: T1, P2Y12-K80A (Homo sapiens, UniProt Q9H244, K80A); assay: Intracellular Ca2+ mobilization, HEK293 expressing P2Y12 K80A mutant; assay type: cell-based; details: calcium mobilization, mean ± SEM
T1 construct: HA (N); expressed in transfected cells; host or cells: HEK293
Method: (§1) Intracellular Ca^2+ assays were carried out as follows.

P2Y12-K280A = biological target: T2, P2Y12-K280A (Homo sapiens, UniProt Q9H244, K280A); assay: Intracellular Ca2+ mobilization, HEK293 expressing P2Y12 K280A mutant; assay type: cell-based; details: calcium mobilization, mean ± SEM
T2 construct: HA (N); expressed in transfected cells; host or cells: HEK293
T2 sequence (Q9H244 whole entry K280A): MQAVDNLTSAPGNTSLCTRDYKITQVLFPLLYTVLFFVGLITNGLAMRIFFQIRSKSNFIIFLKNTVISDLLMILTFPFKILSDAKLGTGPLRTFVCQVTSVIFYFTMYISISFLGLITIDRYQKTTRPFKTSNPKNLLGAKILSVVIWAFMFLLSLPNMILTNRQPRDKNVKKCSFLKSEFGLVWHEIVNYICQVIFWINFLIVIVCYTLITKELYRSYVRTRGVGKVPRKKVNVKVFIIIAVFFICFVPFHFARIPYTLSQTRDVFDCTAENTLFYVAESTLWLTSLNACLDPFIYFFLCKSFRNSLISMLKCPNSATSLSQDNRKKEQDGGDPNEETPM
Method: as §1

human P2Y12 = biological target: T3, human P2Y12 (Homo sapiens, UniProt Q9H244); assay: Intracellular Ca2+ mobilization, HEK293 co-transfected with P2Y12 wild-type and Gαqi5; assay type: cell-based; details: calcium mobilization, HEK293, P2Y12 WT + Gαqi5, mean ± SEM
T3 construct: HA (N); expressed in transfected cells; host or cells: HEK293
T3 sequence (Q9H244 whole entry): as the sequence (Q9H244 whole entry K280A) above, with A280K counted along it
Method: as §1

P2Y12-F277A = biological target: T4, P2Y12-F277A (Homo sapiens, UniProt Q9H244, F277A); assay: Intracellular Ca2+ mobilization, HEK293 expressing P2Y12 F277A mutant; assay type: cell-based; details: calcium mobilization, mean ± SEM
T4 construct: HA (N); expressed in transfected cells; host or cells: HEK293
T4 sequence (Q9H244 whole entry F277A): as the sequence (Q9H244 whole entry K280A) above, with F277A, A280K counted along it
Method: as §1

P2Y12-E281A = biological target: T5, P2Y12-E281A (Homo sapiens, UniProt Q9H244, E281A); assay: Intracellular Ca2+ mobilization, HEK293 expressing P2Y12 E281A mutant; assay type: cell-based; details: calcium mobilization, mean ± SEM
T5 construct: HA (N); expressed in transfected cells; host or cells: HEK293
T5 sequence (Q9H244 whole entry E281A): as the sequence (Q9H244 whole entry K280A) above, with A280K, E281A counted along it
Method: as §1

P2Y12-D84A = biological target: T6, P2Y12-D84A (Homo sapiens, UniProt Q9H244, D84A); assay: Intracellular Ca2+ mobilization, HEK293 expressing P2Y12 D84A mutant; assay type: cell-based; details: calcium mobilization, mean ± SEM
T6 construct: HA (N); expressed in transfected cells; host or cells: HEK293
T6 sequence (Q9H244 whole entry D84A): as the sequence (Q9H244 whole entry K280A) above, with D84A, A280K counted along it
Method: as §1

P2Y14-K77A = biological target: T7, P2Y14-K77A (Homo sapiens, UniProt Q15391, K77A); assay: Intracellular Ca2+ mobilization, HEK293 expressing P2Y14 K77A mutant; assay type: cell-based; details: calcium mobilization, mean ± SEM
T7 construct: HA (N); expressed in transfected cells; host or cells: HEK293
T7 sequence (Q15391 1-338 K77A): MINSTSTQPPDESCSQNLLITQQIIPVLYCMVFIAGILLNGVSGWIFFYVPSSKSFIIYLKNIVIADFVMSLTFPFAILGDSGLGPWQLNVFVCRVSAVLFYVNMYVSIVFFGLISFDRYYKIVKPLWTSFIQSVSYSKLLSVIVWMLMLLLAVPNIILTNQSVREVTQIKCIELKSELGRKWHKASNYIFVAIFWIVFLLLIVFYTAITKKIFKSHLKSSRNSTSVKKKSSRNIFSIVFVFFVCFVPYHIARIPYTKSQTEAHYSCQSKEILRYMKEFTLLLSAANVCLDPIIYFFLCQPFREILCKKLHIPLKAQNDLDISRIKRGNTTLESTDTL

P2Y14-D81A = biological target: T8, P2Y14-D81A (Homo sapiens, UniProt Q15391, D81A); assay: Intracellular Ca2+ mobilization, HEK293 expressing P2Y14 D81A mutant; assay type: cell-based; details: calcium mobilization, mean ± SEM
T8 construct: HA (N); expressed in transfected cells; host or cells: HEK293
T8 sequence (Q15391 1-338 D81A): T7 sequence (Q15391 1-338 K77A) with A77K, D81A

P2Y14-K277A = biological target: T9, P2Y14-K277A (Homo sapiens, UniProt Q15391, K277A); assay: cell-based
T9 sequence (Q15391 1-338 K277A): T7 sequence (Q15391 1-338 K77A) with A77K, K277A

human P2Y14 = biological target: T10, human P2Y14 (Homo sapiens, UniProt Q15391); assay: Intracellular Ca2+ mobilization, HEK293 co-transfected with P2Y14 wild-type and Gαqi5; assay type: cell-based; details: calcium mobilization, HEK293, P2Y14 WT + Gαqi5, mean ± SEM
T10 construct: HA (N); expressed in transfected cells; host or cells: HEK293
T10 sequence (Q15391 1-338): T7 sequence (Q15391 1-338 K77A) with A77K

P2Y14-E278A = biological target: T11, P2Y14-E278A (Homo sapiens, UniProt Q15391, E278A); assay: Intracellular Ca2+ mobilization, HEK293 expressing P2Y14 E278A mutant; assay type: cell-based; details: calcium mobilization, mean ± SEM
T11 construct: HA (N); expressed in transfected cells; host or cells: HEK293
T11 sequence (Q15391 1-338 E278A): T7 sequence (Q15391 1-338 K77A) with A77K, E278A

T1 sequence (Q9H244 whole entry K80A): as the sequence (Q9H244 whole entry K280A) above, with K80A, A280K counted along it

| SMILES | EC50 (P2Y12-K80A) [µM] | EC50 (P2Y12-K280A) [µM] | EC50 (human P2Y12) [µM] | EC50 (P2Y12-F277A) [µM] | EC50 (P2Y12-E281A) [µM] | EC50 (P2Y12-D84A) [µM] | EC50 (P2Y14-K77A) [µM] | EC50 (P2Y14-D81A) [µM] | EC50 (P2Y14-K277A) [µM] | EC50 (human P2Y14) [µM] | EC50 (P2Y14-E278A) [µM] |
| --- | --- | --- | --- | --- | --- | --- | --- | --- | --- | --- | --- |
| Nc1ncnc2c1ncn2C1OC(COP(=O)(O)OP(=O)(O)OC2OC(C(=O)O)C(O)C(O)C2O)C(O)C1O (stereo not shown) [ADP-GlcA, ADP-glucuronic acid] | 35.2 ± 0.5 | 18.1 ± 3.3 | 1.3 ± 0.1 | 5 ± 0.4 | 28.2 ± 4.1 | 9.4 ± 0.3 |  |  |  |  |  |
| CC(=O)N[C@H]1[C@@H](OP(=O)(O)OP(=O)(O)OC[C@H]2O[C@@H](n3ccc(=O)[nH]c3=O)[C@H](O)[C@@H]2O)O[C@H](CO)[C@@H](O)[C@@H]1O [UDP-GlcNAc, UDP-N-acetylglucosamine] |  |  |  |  |  |  | > 3 | 3 ± 0.174 | 0.549 ± 0.0744 | 0.184 ± 0.0118 | 0.624 ± 0.102 |
| Nc1ncnc2c1ncn2C1OC(COP(=O)(O)OP(=O)(O)OC2OC(CO)C(O)C(O)C2O)C(O)C1O (stereo not shown) [ADP-Glc, ADP-glucose] | 96.9 ± 14.4 | 41.8 ± 3 | 3.4 ± 0.4 | 15.4 ± 1.1 | 75.3 ± 10.1 | 29.3 ± 1.2 |  |  |  |  |  |
| Nc1ncnc2c1ncn2C1OC(COP(=O)(O)OP(=O)(O)OC2OC(CO)C(O)C(O)C2O)C(O)C1O (stereo not shown) [ADP-Man, ADP-mannose] | > 150 | > 150 | 12.3 ± 0.9 | 128 ± 17.6 | > 150 | > 150 |  |  |  |  |  |
| O=C(O)C1OC(OP(=O)(O)OP(=O)(O)OCC2OC(n3ccc(=O)[nH]c3=O)C(O)C2O)C(O)C(O)C1O (stereo not shown) [UDP-GlcA, UDP-glucuronic acid] |  |  |  |  |  |  | > 3 | 0.172 ± 0.0098 | > 3 | 0.0599 ± 0.0048 | 0.0382 ± 0.0022 |

Source: PMC10642967, “Identification of a carbohydrate recognition motif of purinergic receptors” (eLife, 2023)
